Reference: patent US20240190874A1, “SMALL MOLECULE DEGRADERS OF ANDROGEN RECEPTOR” (THE REGENTS OF THE UNIVERSITY OF MICHIGAN, priority 2021, published 2024)

What was measured:
Type in all cases: cell-based
[1] = target: T1, AR (Homo sapiens, UniProt P10275); assay: Degradation of AR in VCaP cells; conditions: VCaP cells
T1 construct: Degradation of AR; Cellular potency; host or cells: VCaP cells
T1 sequence (P10275 1-920): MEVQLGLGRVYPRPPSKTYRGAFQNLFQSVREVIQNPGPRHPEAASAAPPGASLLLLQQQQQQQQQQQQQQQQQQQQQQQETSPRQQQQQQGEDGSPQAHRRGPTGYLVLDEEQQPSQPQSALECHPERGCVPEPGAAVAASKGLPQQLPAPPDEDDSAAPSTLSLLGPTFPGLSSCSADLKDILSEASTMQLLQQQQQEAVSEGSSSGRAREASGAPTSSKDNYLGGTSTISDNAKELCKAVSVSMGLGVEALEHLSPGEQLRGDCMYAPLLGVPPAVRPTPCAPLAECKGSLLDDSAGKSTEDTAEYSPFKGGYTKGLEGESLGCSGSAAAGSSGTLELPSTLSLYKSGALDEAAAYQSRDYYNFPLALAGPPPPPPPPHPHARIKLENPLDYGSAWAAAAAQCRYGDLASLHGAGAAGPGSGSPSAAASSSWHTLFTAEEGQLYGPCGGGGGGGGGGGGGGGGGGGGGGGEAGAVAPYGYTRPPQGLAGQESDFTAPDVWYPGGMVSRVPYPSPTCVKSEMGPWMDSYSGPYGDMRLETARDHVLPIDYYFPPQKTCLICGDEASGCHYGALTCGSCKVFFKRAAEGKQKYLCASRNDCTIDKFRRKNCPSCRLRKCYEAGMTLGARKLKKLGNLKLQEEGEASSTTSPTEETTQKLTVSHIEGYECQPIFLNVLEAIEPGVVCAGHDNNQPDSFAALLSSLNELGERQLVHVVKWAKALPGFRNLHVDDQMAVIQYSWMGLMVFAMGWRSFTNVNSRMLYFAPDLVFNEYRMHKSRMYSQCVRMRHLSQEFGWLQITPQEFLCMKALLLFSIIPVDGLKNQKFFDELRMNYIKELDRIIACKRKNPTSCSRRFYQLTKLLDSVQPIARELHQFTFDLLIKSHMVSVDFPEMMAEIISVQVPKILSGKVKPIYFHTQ
Protocol: (§1) Biological Assays. LNCaP and VCaP cells used were purchased from American Type Culture Collection (ATCC). LNCaP were grown in RPMI 1640 (Invitrogen) and VCaP cells were grown in DMEM with Glutamax (Invitrogen). All of the cells were supplemented with 10% fetal bovine serum (Invitrogen) at 37° C. in a humidified 5% CO2 incubator.

[2] = test system: LNCaP cells; assay: Cellular potency (IC50) in LNCaP cells; conditions: Homo sapiens, LNCaP
Protocol: as §1

[3] = test system: VCaP cells; assay: Cellular potency (IC50) in VCaP cells; conditions: Homo sapiens, VCaP
Protocol: as §1

Row | SMILES | DC50 [1] [nM] | IC50 [2] [nM] | IC50 [3] [nM]
1 | C[C@H]1CC2(CCN(c3ccc(S(=O)(=O)C4CCN(C(=O)CN5Cc6cc7c(cc6C5)C(=O)N(C5CCC(=O)NC5=O)C7=O)CC4)cc3)CC2)CN1c1ccc(C#N)c(Cl)c1 (stereo partly drawn) [compound 152] | < 1 | < 100 | < 100
2 | C[C@H]1CC2(CCN(c3ccc(CN4CCN(C5CCN(c6ccc7c(c6)C(=O)N(C6CCC(=O)NC6=O)C7=O)CC5)CC4)cn3)CC2)CN1c1ccc(C#N)c(Cl)c1 (stereo partly drawn) [compound 154] | < 1 | < 10 | < 100
3 | C[C@H]1CC2(CCN(c3ccc(C(=O)N4CCC(C(=O)CN5Cc6cc7c(cc6C5)C(=O)N(C5CCC(=O)NC5=O)C7=O)CC4)nc3)CC2)CN1c1ccc(C#N)c(Cl)c1 (stereo partly drawn) [compound 160] | < 1 | < 10 | < 1000
4 | C[C@H]1CC2(CCN(c3ccc(S(=O)(=O)C4CCN(C5CCN(c6ccc7c(c6)C(=O)N(C6CCC(=O)NC6=O)C7=O)CC5)CC4)cc3)CC2)CN1c1ccc(C#N)c(Cl)c1 (stereo partly drawn) [compound 161] | < 1 | < 10 | < 10
5 | C[C@H]1CC2(CCN(c3ccc(S(=O)(=O)C4CCN(CC5CCN(c6ccc7c(c6)C(=O)N(C6CCC(=O)NC6=O)C7=O)CC5)CC4)cc3)CC2)CN1c1ccc(C#N)c(Cl)c1 (stereo partly drawn) [compound 162] | < 1 | < 10 | < 10
6 | C[C@H]1CC2(CCN(c3ccc(S(=O)(=O)C4CCN(C5CN(c6ccc7c(c6)C(=O)N(C6CCC(=O)NC6=O)C7=O)C5)CC4)cc3)CC2)CN1c1ccc(C#N)c(Cl)c1 (stereo partly drawn) [compound 163] | < 1 | < 10 | < 10
7 | C[C@H]1CC2(CCN(c3ccc(S(=O)(=O)C4CCN(CC5CN(c6ccc7c(c6)C(=O)N(C6CCC(=O)NC6=O)C7=O)C5)CC4)cc3)CC2)CN1c1ccc(C#N)c(Cl)c1 (stereo partly drawn) [compound 164] | < 1 | < 100 | < 10
8 | C[C@H]1CC2(CCN(c3ccc(CN4CCN(C5CCN(c6cc7c(cc6F)C(=O)N(C6CCC(=O)NC6=O)C7=O)CC5)CC4)cn3)CC2)CN1c1ccc(C#N)c(Cl)c1 (stereo partly drawn) [compound 165] | < 10 | < 10 | < 10
9 | C[C@H]1CC2(CCN(c3ccc(CN4CCC(N5CCN(c6ccc7c(c6)C(=O)N(C6CCC(=O)NC6=O)C7=O)CC5)CC4)cn3)CC2)CN1c1ccc(C#N)c(Cl)c1 (stereo partly drawn) [compound 166] | < 10 | < 100 | < 10
10 | C[C@H]1CC2(CCN(c3ccc(CN4CCC(N5CCN(c6cc7c(cc6F)C(=O)N(C6CCC(=O)NC6=O)C7=O)CC5)CC4)cn3)CC2)CN1c1ccc(C#N)c(Cl)c1 (stereo partly drawn) [compound 168] | < 10 | < 10 | < 10
11 | C[C@H]1CC2(CCN(c3cnc(CN4CCN(C5CCN(c6ccc7c(c6)C(=O)N(C6CCC(=O)NC6=O)C7=O)CC5)CC4)nc3)CC2)CN1c1ccc(C#N)c(Cl)c1 (stereo partly drawn) [compound 171] | < 10 | < 10 | < 100
12 | C[C@H]1CC2(CCN(c3ccc(CN4CCN(C5CN(c6cc7c(cc6F)C(=O)N(C6CCC(=O)NC6=O)C7=O)C5)CC4)nc3)CC2)CN1c1ccc(C#N)c(Cl)c1 (stereo partly drawn) [compound 172] | < 1 | < 10 | < 10
13 | C[C@H]1CC2(CCN(c3ccc(CN4CCN(C5CN(c6ccc7c(c6)C(=O)N(C6CCC(=O)NC6=O)C7=O)C5)CC4)nn3)CC2)CN1c1ccc(C#N)c(Cl)c1 (stereo partly drawn) [compound 173] | < 1 | < 10 | < 100
14 | C[C@H]1CC2(CCN(c3ccc(CN4CCN(C5CN(c6cc7c(cc6F)C(=O)N(C6CCC(=O)NC6=O)C7=O)C5)CC4)nn3)CC2)CN1c1ccc(C#N)c(Cl)c1 (stereo partly drawn) [compound 174] | < 1 | < 10 | < 10
15 | C[C@H]1CC2(CCN(c3cnc(CN4CCN(C5CN(c6cc7c(cc6F)C(=O)N(C6CCC(=O)NC6=O)C7=O)C5)CC4)nc3)CC2)CN1c1ccc(C#N)c(Cl)c1 (stereo partly drawn) [compound 175] | < 1 | < 10 | < 10
16 | C[C@H]1CC2(CCN(c3ccc(CN4CCC(C5CN(c6ccc7c(c6)C(=O)N(C6CCC(=O)NC6=O)C7=O)C5)CC4)cn3)CC2)CN1c1ccc(C#N)c(Cl)c1 (stereo partly drawn) [compound 176] | < 10 | < 10 | < 10

Row | SMILES | DC50 [1] [nM] | IC50 [2] [nM] | IC50 [3] [nM]
17 | C[C@H]1CC2(CCN(c3ccc(CN4CCC(C5CN(c6ccc7c(c6)C(=O)N(C6CCC(=O)NC6=O)C7=O)C5)CC4)nc3)CC2)CN1c1ccc(C#N)c(Cl)c1 (stereo partly drawn) [compound 177] | < 1 | < 10 | < 10
18 | C[C@H]1CC2(CCN(c3ccc(CN4CC(C5CCN(c6ccc7c(c6)C(=O)N(C6CCC(=O)NC6=O)C7=O)CC5)C4)cn3)CC2)CN1c1ccc(C#N)c(Cl)c1 (stereo partly drawn) [compound 178] | < 10 | < 100 | < 100
19 | C[C@H]1CC2(CCN(c3ccc(CN4CC(C5CCN(c6ccc7c(c6)C(=O)N(C6CCC(=O)NC6=O)C7=O)CC5)C4)nc3)CC2)CN1c1ccc(C#N)c(Cl)c1 (stereo partly drawn) [compound 179] | < 10 | < 10 | < 100
20 | C[C@H]1CC2(CCN(c3ccc(CN4CCC(C5CCN(c6ccc7c(c6)C(=O)N(C6CCC(=O)NC6=O)C7=O)CC5)CC4)nc3)CC2)CN1c1ccc(C#N)c(Cl)c1 (stereo partly drawn) [compound 181] | < 1 | < 10 | < 100
21 | C[C@H]1CC2(CCN(c3ccc(CN4CCN(C5CCN(c6ccc7c(c6)C(=O)N(C6CCC(=O)NC6=O)C7=O)CC5)CC4)nc3)CC2)CN1c1ccc(C#N)c(Cl)c1 (stereo partly drawn) [compound 182] | < 1 | < 10 | < 100
22 | C[C@H]1CC2(CCN(c3ncc(CN4CCN(C5CN(c6ccc7c(c6)C(=O)N(C6CCC(=O)NC6=O)C7=O)C5)CC4)cn3)CC2)CN1c1ccc(C#N)c(Cl)c1 (stereo partly drawn) [compound 183] | < 1 | < 100 | < 100
23 | C[C@H]1CC2(CCN(c3cnc(CN4CCN(C5CN(c6ccc7c(c6)C(=O)N(C6CCC(=O)NC6=O)C7=O)C5)CC4)cn3)CC2)CN1c1ccc(C#N)c(Cl)c1 (stereo partly drawn) [compound 185] | < 1 | < 100 | < 100
24 | C[C@H]1CC2(CCN(c3ccc(C(=O)N4CCC(N5CCOc6cc7c(cc6C5)C(=O)N(C5CCC(=O)NC5=O)C7=O)CC4)cc3)CC2)CN1c1ccc(C#N)c(Cl)c1 (stereo partly drawn) [compound 194] | < 10 | < 10 | < 100
25 | C[C@H]1CC2(CCN(c3ccc(C(=O)N4CCC(CN5CCOc6cc7c(cc6C5)C(=O)N(C5CCC(=O)NC5=O)C7=O)CC4)cc3)CC2)CN1c1ccc(C#N)c(Cl)c1 (stereo partly drawn) [compound 195] | < 10 | < 10 | < 100
26 | C[C@H]1CC2(CCN(c3ccc(CC4CCN(C5CN(c6ccc7c(c6)C(=O)N(C6CCC(=O)NC6=O)C7=O)C5)CC4)cn3)CC2)CN1c1ccc(C#N)c(Cl)c1 (stereo partly drawn) [compound 196] | < 1 | < 10 | < 100
27 | C[C@H]1CC2(CCN(c3ccc(CC4CCN(C5CN(c6ccc7c(c6)C(=O)N(C6CCC(=O)NC6=O)C7=O)C5)CC4)nc3)CC2)CN1c1ccc(C#N)c(Cl)c1 (stereo partly drawn) [compound 197] | < 1 | < 10 | < 10
28 | C[C@H]1CC2(CCN(c3ccc(CC4CCN(C5CN(c6ccc7c(c6)C(=O)N(C6CCC(=O)NC6=O)C7=O)C5)CC4)nn3)CC2)CN1c1ccc(C#N)c(Cl)c1 (stereo partly drawn) [compound 198] | < 10 | < 10 | < 10
29 | C[C@H]1CC2(CCN(c3ccc(CN4CCC(N5CCN(c6ccc7c(c6)C(=O)N(C6CCC(=O)NC6=O)C7=O)CC5)CC4)nn3)CC2)CN1c1ccc(C#N)c(Cl)c1 (stereo partly drawn) [compound 202] | < 1 | < 10 | < 10
30 | C[C@H]1CC2(CCN(c3ccc(CN4CCC(N5CCN(c6cc7c(cc6F)C(=O)N(C6CCC(=O)NC6=O)C7=O)CC5)CC4)nn3)CC2)CN1c1ccc(C#N)c(Cl)c1 (stereo partly drawn) [compound 203] | < 1 | < 10 | < 10
31 | C[C@H]1CC2(CCN(c3ccc(CN4CC(N5CCN(c6ccc7c(c6)C(=O)N(C6CCC(=O)NC6=O)C7=O)CC5)C4)cn3)CC2)CN1c1ccc(C#N)c(Cl)c1 (stereo partly drawn) [compound 204] | < 1 | < 10 | < 10
32 | C[C@H]1CC2(CCN(c3ccc(CN4CC(N5CCN(c6cc7c(cc6F)C(=O)N(C6CCC(=O)NC6=O)C7=O)CC5)C4)cn3)CC2)CN1c1ccc(C#N)c(Cl)c1 (stereo partly drawn) [compound 205] | < 1 | < 10 | < 10
